Results as given in patent publication US11434490B2, “Fluorogen-binding RNA aptamers” (CENTRE NATIONAL DE LA RECHERCHE SCIENTIFIQUE, priority 2017, dated 2022).

Legend:
[1] = cited from earlier work
[2] = Fluorescence enhancement of TO3-Biotin; format: biochemical; details: ligand TO3-B; calculated relative to wt from the binding titration
Procedure: (§1) The bandwidth for all measurements was 1.5 nm for all experiments. Measurements were performed in a 0.2 cm path length cuvette in a background of 20 mM MOPS pH 7.0, 150 mM KCl, 10 μM EDTA. Fluorescence readings were taken in the absence of RNA at a ligand concentration of 0.82 μM. A concentrated, annealed stock of RNA was then added to the cuvette resulting in a final concentration of 2 μM RNA and allowed to equilibrate for 1 minute prior to taking an emission reading. Fluorescence enhancement was determined by dividing the fluorescence signal of ligand in the presence of RNA by the fluorescence signal in the absence of RNA corrected for the background of the instrument.

[3] = Fluorescence enhancement of TO1-Biotin; format: biochemical; details: ligand TO1-B; calculated relative to wt from the binding titration
Procedure: as §1

[4] = Fluorescence titration, binding affinity for TO1-Biotin; details: for Kd: ligand TO1-B (TO1-Biotin)
Excerpt: (§2) FIG. 2|RNA Mango I, II, III and IV core sequences and their properties. (a) Color coded alignment of RNA Mango I, II, III and IV. G residues in yellow are protected from DMS cleavage (data from panel d) when folded in the presence of fluorophore. Quadruplex stacks and their associated propeller sequences are numbered 1 through 4. The GAAA isolation motif of Mango I, together with two adenines essential for binding, are shown in green and red respectively. Purple shading represents a flanking stem region common for all four Mango aptamers. Schematic: A tertiary structure schematic of Mango I, showing tier 1, 2 and 3 of its quadruplex structure (T1, T2 and T3) and color-coded as in (a). […] Bottom: Top view of the Mango I core (PBD ID: 5V3F), showing the T3 tier of the quadruplex and relevant propeller residues, color coding matches the schematic and panel a. […] KD values are shown next to each titration. (c) Same as for panel b but using 20 nM TO3-Biotin. Data for panels b and c have been normalized such that Mango I has a maximum fluorescence of 1. Error bars are standard deviation of three replicates. (d) DMS chemical protection patterns for the four Mango aptamers. 3′ end-labelled RNA (terminal ^32pCp shown as a black asterisk) was subjected to DMS chemical modification followed by reduction by NaBH4 and aniline cleavage as described in the methods. […] Legend: T1—denatured T1 ladder; OH—partial alkaline hydrolysis ladder; (−) DMS—denatured reaction with ddH2O added in place of DMS; 80° C.
(§3) Fluorescence data was gathered using a Varian Cary Eclipse Spectrophotometer unless otherwise stated. […] Fluorescence was measured at the maximum excitation and emission wavelengths of each complex (FIG. 13).
Where F([RNA]) is the fluorescence as a function of RNA concentration [RNA], Fmax is the maximal fluorescence of the bound complex and Funbound the fluorescence of the unbound fluorophore. When the fluorescence of Funbound was undetectable, it was set to zero.
(§4) Fluorescence readings were recorded using a Varian Cary Eclipse Spectrophotometer set to measure at the maximum excitation and emission wavelengths of the Mango II aptamer dye complex. Fluorescence titrations were performed in Mango selection buffer (WB: 140 mM KCl, 1 mM MgCl2, 10 mM NaH2PO4 pH 7.2, 0.05% Tween-20).

[5] = Fluorescence titration, binding affinity for TO3-Biotin; details: ligand TO3-B (TO3-Biotin)
Excerpt: as §2, §3
Or to the following equation for TO3-Biotin and NMM experiments: F([RNA])=Fmax[RNA]/(KD+[RNA])+Funbound (Eq. 2) Fmax was determined using Eq. 1 or Eq. 2 as appropriate. Temperature Dependent Fluorescence and UV Melting Curves
as §4

[6] = system: HEK293T cells; experiment: Cellular imaging of transfected Mango tagged RNAs; format: cell-based; details: fixed cells
Procedure: HEK293T cells were grown in Dulbecco Modified Eagle's Medium containing 10% Fetal Bovine Serum, 2 mM D-Glucose, 2 mM L-Glutamine, 1 mM Sodium Pyruvate and 100 U/ml Penicillin/Streptomycin (Thermo Fisher) and maintained at 37° C. with 5% CO2 in a humidified incubator. Cells used for imaging were cultured in Ibidi glass bottomed 8-well chamber slides (Ibidi GmbH).
RNA was transfected directly into 8-well chamber slides using the Lipofectamine-based CRISPRMAX reagent following the manufacturers guidelines (Invitrogen). Initially 125 nM RNA containing 10 mM Sodium Phosphate buffer (pH 7.2), 100 mM KCl and 1 mM MgCl2 was incubated at room temperature followed by a 1:1 dilution in OptiMEM prior to transfection. The RNA transfected was incubated at 37° C. for 1 hour in complete growth medium.
Cells were fixed in PBS containing 4% paraformaldehyde for 10 min on ice (Thermo Fisher) followed by permeabilization in 0.2% Triton X-100 for 10 min at room temperature. Cells were first blocked (2% BSA in PBS) for 30 min followed by primary antibody (1:50-1:500 dilutions) incubation for 120 min in blocking solution.
Primary antibodies used here were: Anti-Ribosomal Protein S6 (MAB5436, R&D Systems), Anti-ATP5B (ab14730, Abcam), Anti-GW182 (ab7052, Abcam), Anti-EEA-1 (ab70521, Abcam), Anti-LSm3 (NBP2-14206, Novus Biologicals), Anti-TIAR (sc-398372, Santa Cruz). Secondary antibodies used were Donkey Anti-mouse and Donkey Anti-Rabbit Alexa Fluor 680 (Molecular Probes). Primary antibodies were washed three times for 20 min each in blocking solution followed by incubation with secondary antibody at 1:500 dilution for 60 min, which was subsequently washed as above.
To visualize the nuclear boundary in live cells, a plasmid expressing a fluorescently tagged histone protein (EBFP2-H2B-6, Addgene plasmid 55243) was transfected using FuGene 6 (Promega) 24 h prior to RNA transfection. […] Following incubation of the RNA transfection, the cells were washed once with PBS and replaced with live-cell imaging media (Fluorobrite DMEM supplemented with 20 mM HEPES, Invitrogen). Live and fixed cell images were taken using a Zeiss Elyra wide-field microscope by exciting at 405 nm (Blue), 488 nm (Green) and 642 nm (Far-Red) and detecting at 420-480 nm, 495-550 nm and >650 nm, respectively. Live cells were maintained at 37° C. with 5% CO2 in a stage top incubator (Tokai Hit). Images were processed using FIJI and spot detection analysis was performed on each maximum projection by the spot detector plugin in the ICY image analysis software, which detects significant foci with a pixel area 3×3 pixels.

[7] = Salt dependence of Mango/TO1-Biotin fluorescence: K+ titration; format: binding; details: 25 nM RNA, 50 nM TO1-Biotin, 10 mM Tris pH 7.2
Procedure: (§5) FIG. 10|Salt dependence of new Mango variants. Dependence of fluorescence of each Mango for (a) K^+, (b) Na^+ in place of K^+, and (c) Mg^2+ ions in a buffer containing 140 mM K^+. […] 10 mM Tris buffer (pH 7.2) was used in place of phosphate of the WB buffer to avoid monovalent counter ions. Color-coding is as follows: Black—Mango I, Blue—Mango II, Green—Mango III, Orange—Mango IV. Hill coefficients are fitted to dark points. Points in lighter shade have been excluded from the fit. Error bars are standard deviations of three replicates.

[8] = Salt dependence of Mango/TO1-Biotin fluorescence: Mg2+ titration; details: in the presence of potassium; Mg2+ 256 mM
Procedure: as §5

[9] = Brightness and photophysics of Mango fluorophore complexes; format: physicochemical
Excerpt: as §2
FIG. 13|Photophysics: excitation/emission. (a) Excitation (dark curve) and emission (light curve) spectra of each Mango. All Mangos have Δex max=510 nm and Δem max=535 nm. Color-coding is as follows: Black—Mango I, Blue—Mango II, Green—Mango III, Red—Mango IV.
as §3

[10] = Salt dependence of Mango/TO1-Biotin fluorescence: Na+ in place of K+; format: binding
Procedure: as §5

[11] = Formaldehyde resistance assay; format: physicochemical; details: in vitro, TO1-Biotin
Procedure: FIG. 15|Effect of formaldehyde on Mango fluorescence. […] In (b) RNA is incubated with the corresponding amounts of formaldehyde first for one hour, then TO1-Biotin is added. Data for each panel is normalized to RFU at the 0% formaldehyde, 0 min point.
RNA Mango aptamers were incubated with TO1-Biotin in WB buffer for at least one hour until equilibrium fluorescence was reached. […] Fluorescence was measured as a kinetic run at a rate of 2 readings per minute using a Varian Cary Eclipse Fluorescence Spectrophotometer, ex/em=510±2.5/535±5 nm.

[12] = Photobleaching under constant illumination; details: identical illumination conditions, on average
Procedure: FIG. 16|Formation of 5S-Mango foci and their dynamics in live cells. (a) 5S-Mango IV imaged post cell fixation at 5, 15, 30 and 60 mins after transfection using Lipofectamine based CRISPRMAX transfection reagent. […] (c) Root mean-squared displacement (RMSD) of three observed foci with different diffusive behaviors, fast (Green), slow (Blue) and static (Red) shown in Video 3. Scale bars are 10 μm and arrows indicate foci of interest. (d) Normalized photobleaching traces of 5S-F30-Mango I and IV compared to 5S-F30-dBroccoli under constant illumination with an exposure time of 200 ms. Photobleaching half-lives are stated in the table adjacent and were calculated from an exponential fit of each curve.

**Q.** For `CN1C(=Cc2cc[n+](C)c3ccccc23)Sc2ccccc21` [TO1, Thiazole Orange], which “fluorescence quantum yield ϕ” value ([1]; aqueous solution) is on record?
**A.** The value was 2×10^−4.

**Q.** What about the intracellular half-life [1] of the same compound?
**A.** Its intracellular half-life is “short intracellular half-life”.

**Q.** What about the membrane permeability [1] of the same compound?
**A.** Its membrane permeability is “plasma and nuclear membrane permeability”.

**Q.** And the fluorescence quantum yield ([1]; inserted into double-stranded helical nucleic acids)?
**A.** The fluorescence quantum yield was 0.11.

**Q.** With “Mango II - A22C: Mango-II point mutant; SEQ ID NO: 6906 (GGCACGUACGAAGGAGAGGAGAGGCAGAGGAGAGUACGUGC; chemistry not given here)” as the compound, how does the “FIE (fluorescence enhancement) †” value [2] read?
**A.** The value was 37 †.

**Q.** And the “FIE (fluorescence enhancement) †” value [3]?
**A.** The value was 1407 †.

**Q.** What about the Kd [4] of the same compound?
**A.** Its Kd is 0.9 ± 0.2 nM.

**Q.** And the Kd [5]?
**A.** Its Kd is 5.1 ± 1.4 nM.

**Q.** Which results are given for “5S-F30-Mango IV: 5S rRNA tagged with Mango IV in F30 scaffold; SEQ ID NO: 6894”?
**A.** foci formation after transfection [6]: consistently exhibit visible foci; fraction of foci that are clearly nuclear [6]: ~5%; fraction of foci that are cytoplasmic [6]: ~85%; mean intensity of foci against 5S-F30-Control background ([6]; 200 nM TO1-Biotin): two to three-fold higher

**Q.** Which “FIE (fluorescence enhancement) †” value [3] does the source give for “Mango II - A12U: Mango-II point mutant; SEQ ID NO: 6908 (GGCACGUACGAAGGUGAGGAGAGGAAGAGGAGAGUACGUGC; chemistry not given here)” here?
**A.** Its value is 1342 †.

**Q.** And the Kd [4]?
**A.** Its Kd is 0.4 ± 0.07 nM.

**Q.** For “Mango-IV: minimal construct engineered from isolate R5-NMM-5”, which Kd [7] is on record?
**A.** Its Kd is 64 ± 24 mM.

**Q.** And the “Hill Coefficients K^+” value ([7]; * estimated from initial rise of fluorescence)?
**A.** Its value is 1.5 ± 0.2*.

**Q.** And the “effect of high levels of Mg^2+ on fluorescence” value [8]?
**A.** Its value is “significantly resistant”.

**Q.** What about the “brightness of the TO1-Biotin bound complex” value ([9]; TO1-Biotin complex) of the same compound?
**A.** Its value is 32,000 M^−1cm^−1.

**Q.** And the “brighter than Mango-I” value ([9]; TO1-Biotin, FIG. 2b)?
**A.** The value was 3 fold.

**Q.** What about the “fluorescence in the presence of sodium ions” value [10] of the same compound?
**A.** Its value is “limited fluorescence response”.

**Q.** And the “TO1-Biotin binding affinity (in words)” value [4]?
**A.** Its value is “slightly weaker affinities than Mango-I”.

**Q.** What about the “decrease in binding affinity on replacing CGA with GAA” value ([4]; Mango-IV sequence variant against Mango-IV) of the same compound?
**A.** Its value is “four-fold”.

**Q.** What about the resistance to formaldehyde [11] of the same compound?
**A.** The resistance to formaldehyde was “substantially resistant to formaldehyde”.

**Q.** What about the “bleaching half-lives longer than RNA Spinach” value [12] of the same compound?
**A.** Its value is 10 times.

**Q.** With “Mango II - A17U: Mango-II point mutant; SEQ ID NO: 6909 (GGCACGUACGAAGGAGAGGUGAGGAAGAGGAGAGUACGUGC; chemistry not given here)” as the compound, how does the “FIE (fluorescence enhancement) †” value [3] read?
**A.** Its value is 1237 †.

**Q.** And the Kd [4]?
**A.** The Kd was 1 ± 0.16 nM.

**Q.** For “Mango II - A22G: Mango-II point mutant; SEQ ID NO: 6907 (GGCACGUACGAAGGAGAGGAGAGGGAGAGGAGAGUACGUGC; chemistry not given here)”, which “FIE (fluorescence enhancement) †” value [2] is on record?
**A.** The value was 52 †.

**Q.** And the “FIE (fluorescence enhancement) †” value [3]?
**A.** The value was 1224 †.

**Q.** What about the Kd [4] of the same compound?
**A.** The Kd was 6.4 ± 1.5 nM.

**Q.** What about the Kd [5] of the same compound?
**A.** Its Kd is 7.6 ± 3.7 nM.

**Q.** For “Mango II - A15U A20U A25U: Mango-II triple mutant; SEQ ID NO: 6911 (GGCACGUACGAAGGUGAGGUGAGGUAGAGGAGAGUACGUGC; chemistry not given here)”, which “FIE (fluorescence enhancement) †” value [3] is on record?
**A.** The value was 1329 †.

**Q.** And the Kd [4]?
**A.** Its Kd is 0.76 ± 0.24 nM.

**Q.** Which results are given for “Mango II - A15U A20U A25U A26U A31U: Mango-II five-fold mutant; SEQ ID NO: 6910 (GGCACGUACGAAGGUGAGGUGAGGUUGAGGUGAGUACGUGC; chemistry not given here)”?
**A.** FIE (fluorescence enhancement) † [3]: 1133 †; Kd [4]: 1.92 ± 0.39 nM
